Values of other authors in patent publication US8961477B2, “Delivery of immune response modifier compounds” (3M Innovative Properties Company, priority 2003, dated 2015).

Legend:
[1] = molecular target: T1, TLR 8 (Homo sapiens, UniProt Q9NR97); details: statement in words, no data given
T1 construct: expressed in transfected cells
T1 sequence (Q9NR97 27-1041): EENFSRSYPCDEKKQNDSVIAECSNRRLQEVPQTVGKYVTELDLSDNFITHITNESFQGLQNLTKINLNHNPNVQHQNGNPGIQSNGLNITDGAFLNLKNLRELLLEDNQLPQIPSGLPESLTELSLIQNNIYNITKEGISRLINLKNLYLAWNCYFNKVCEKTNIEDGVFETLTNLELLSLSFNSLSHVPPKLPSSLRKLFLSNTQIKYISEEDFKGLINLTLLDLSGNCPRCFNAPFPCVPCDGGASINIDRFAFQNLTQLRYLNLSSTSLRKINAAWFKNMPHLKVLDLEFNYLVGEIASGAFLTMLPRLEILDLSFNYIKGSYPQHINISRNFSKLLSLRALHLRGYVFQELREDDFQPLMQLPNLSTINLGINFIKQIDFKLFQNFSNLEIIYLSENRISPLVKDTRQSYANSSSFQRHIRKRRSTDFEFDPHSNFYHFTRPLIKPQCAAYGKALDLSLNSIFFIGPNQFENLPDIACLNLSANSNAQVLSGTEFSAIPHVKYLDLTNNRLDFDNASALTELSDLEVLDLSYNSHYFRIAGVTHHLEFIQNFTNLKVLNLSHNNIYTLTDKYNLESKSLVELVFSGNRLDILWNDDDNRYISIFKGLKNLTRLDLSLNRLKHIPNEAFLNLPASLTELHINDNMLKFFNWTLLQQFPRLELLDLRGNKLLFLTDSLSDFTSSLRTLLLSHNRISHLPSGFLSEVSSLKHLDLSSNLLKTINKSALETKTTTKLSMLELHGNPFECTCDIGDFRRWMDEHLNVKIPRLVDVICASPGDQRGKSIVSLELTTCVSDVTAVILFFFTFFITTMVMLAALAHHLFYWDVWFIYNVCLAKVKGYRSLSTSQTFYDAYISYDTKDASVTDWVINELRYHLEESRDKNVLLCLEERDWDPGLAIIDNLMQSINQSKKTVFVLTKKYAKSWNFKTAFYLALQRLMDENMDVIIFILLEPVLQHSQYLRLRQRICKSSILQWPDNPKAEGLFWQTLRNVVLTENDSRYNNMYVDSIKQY

[2] = molecular target: T2, TLR 7 (Homo sapiens, UniProt Q9NYK1); details: statement in words, no data given
T2 construct: expressed in transfected cells
T2 sequence (Q9NYK1 27-1049): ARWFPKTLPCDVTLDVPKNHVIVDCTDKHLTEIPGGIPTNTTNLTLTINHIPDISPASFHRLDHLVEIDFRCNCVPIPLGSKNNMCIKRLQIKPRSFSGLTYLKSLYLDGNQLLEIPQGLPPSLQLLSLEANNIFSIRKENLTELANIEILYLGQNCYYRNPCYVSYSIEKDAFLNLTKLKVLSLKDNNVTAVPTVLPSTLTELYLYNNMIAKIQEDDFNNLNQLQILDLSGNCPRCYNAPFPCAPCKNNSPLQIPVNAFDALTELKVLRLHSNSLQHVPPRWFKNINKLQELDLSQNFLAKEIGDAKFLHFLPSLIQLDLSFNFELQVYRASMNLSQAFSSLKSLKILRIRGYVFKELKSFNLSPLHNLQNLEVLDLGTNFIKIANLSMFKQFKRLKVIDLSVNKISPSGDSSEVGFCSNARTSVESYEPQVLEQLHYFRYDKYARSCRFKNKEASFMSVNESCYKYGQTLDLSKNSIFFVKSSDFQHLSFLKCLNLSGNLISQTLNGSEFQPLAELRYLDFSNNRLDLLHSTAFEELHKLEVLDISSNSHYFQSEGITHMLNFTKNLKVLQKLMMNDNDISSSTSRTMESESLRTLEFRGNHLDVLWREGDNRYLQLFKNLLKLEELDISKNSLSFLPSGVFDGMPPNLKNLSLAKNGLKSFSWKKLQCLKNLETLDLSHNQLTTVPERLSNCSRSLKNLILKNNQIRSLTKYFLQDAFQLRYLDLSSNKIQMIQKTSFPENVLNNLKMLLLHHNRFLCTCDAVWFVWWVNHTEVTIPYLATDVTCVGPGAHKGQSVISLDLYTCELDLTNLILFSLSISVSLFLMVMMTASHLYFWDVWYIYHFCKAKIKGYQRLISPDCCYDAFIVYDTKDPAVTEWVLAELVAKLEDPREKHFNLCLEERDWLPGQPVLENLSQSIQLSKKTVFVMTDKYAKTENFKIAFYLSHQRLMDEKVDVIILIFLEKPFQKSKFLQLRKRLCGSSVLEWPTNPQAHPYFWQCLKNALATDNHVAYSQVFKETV

[3] = molecular target: T3, TLR 6 (Homo sapiens, UniProt Q9Y2C9); details: statement in words, no data given
T3 construct: expressed in transfected cells
T3 sequence (Q9Y2C9 32-796): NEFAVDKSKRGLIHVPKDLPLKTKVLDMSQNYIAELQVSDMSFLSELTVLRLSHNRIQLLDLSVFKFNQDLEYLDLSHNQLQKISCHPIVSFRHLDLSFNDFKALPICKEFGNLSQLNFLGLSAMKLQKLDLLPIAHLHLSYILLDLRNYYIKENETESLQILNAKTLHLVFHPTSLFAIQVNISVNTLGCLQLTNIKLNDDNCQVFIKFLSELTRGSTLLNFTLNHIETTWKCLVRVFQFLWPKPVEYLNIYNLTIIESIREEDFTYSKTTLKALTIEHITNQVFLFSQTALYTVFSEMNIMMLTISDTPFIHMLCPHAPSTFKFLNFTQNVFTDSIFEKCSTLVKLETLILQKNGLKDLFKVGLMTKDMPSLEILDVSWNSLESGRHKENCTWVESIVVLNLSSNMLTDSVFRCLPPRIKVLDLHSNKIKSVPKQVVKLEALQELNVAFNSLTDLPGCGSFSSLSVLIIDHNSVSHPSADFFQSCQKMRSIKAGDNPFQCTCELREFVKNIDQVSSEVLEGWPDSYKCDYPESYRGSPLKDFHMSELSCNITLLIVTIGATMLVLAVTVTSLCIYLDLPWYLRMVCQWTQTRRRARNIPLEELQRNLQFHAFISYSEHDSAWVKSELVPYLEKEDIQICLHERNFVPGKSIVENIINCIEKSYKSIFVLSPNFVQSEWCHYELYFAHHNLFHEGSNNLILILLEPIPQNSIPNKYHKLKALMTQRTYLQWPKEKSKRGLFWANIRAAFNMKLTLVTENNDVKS

[4] = delivered systemically

TLR 8 agonist activity [1] | TLR 7 agonist activity [2] | TLR 6 activity [3] | CNS effect compared to imiquimod [4] | Structure (SMILES)
TLR 7 and TLR 8 agonist | TLR 7 and TLR 8 agonist | – | – | CCOCc1nc2c(N)nc3c(c2n1CC(C)(C)O)CCCC3 [4-amino-2-(ethoxymethyl)-α,α-dimethyl-6,7,8,9-tetrahydro-1H-imidazo[4,5-c]quinoline-1-ethanol]
not a substantial TLR 8 agonist | predominantly a TLR 7 agonist | TLR 6 activity | much lower CNS effect | CC(C)(O)Cn1cnc2c(N)nc3ccccc3c21 [4-amino-α,α-dimethyl-1H-imidazo[4,5-c]quinoline-1-ethanol]
